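96-well plates; 48 h exposure; 5 concentrations. Endpoints by linear interpolation between flanking doses. Not reached: highest tested concentration assigned. GI50 is the concentration that inhibits growth by half.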 Active and inactive are the calls of the source. No stated cut-off is given here; in the data, active = GI50 up to about 1.1 µM and inactive = higher.
Legend:
Test in all cases: inhibition of tumour cell growth, NCI panel, 48 h
A498 = tested on: A498
RPMI-8226 = tested on: RPMI-8226
UACC-257 = tested on: UACC-257
PC-3 = tested on: PC-3
SNB-19 = tested on: SNB-19
SK-OV-3 = tested on: SK-OV-3
OVCAR-5 = tested on: OVCAR-5
NCI/ADR-RES = tested on: NCI/ADR-RES
HCT-15 = tested on: HCT-15
CAKI-1 = tested on: CAKI-1
SK-MEL-2 = tested on: SK-MEL-2
A549 = tested on: A549
NCI-H226 = tested on: NCI-H226
OVCAR-8 = tested on: OVCAR-8
UACC-62 = tested on: UACC-62
ACHN = tested on: ACHN
SK-MEL-5 = tested on: SK-MEL-5
HT-29 = tested on: HT-29
NCI-H23 = tested on: NCI-H23
MDA-N = tested on: MDA-N

SMILES | GI50 (A498) | GI50 (RPMI-8226) | GI50 (UACC-257) | GI50 (PC-3) | GI50 (SNB-19) | GI50 (SK-OV-3) | GI50 (OVCAR-5) | GI50 (NCI/ADR-RES) | GI50 (HCT-15) [µM] | GI50 (CAKI-1) | GI50 (SK-MEL-2) | GI50 (A549) | GI50 (NCI-H226) | GI50 (OVCAR-8) | GI50 (UACC-62) | GI50 (ACHN) | GI50 (SK-MEL-5) | GI50 (HT-29) | GI50 (NCI-H23) | GI50 (MDA-N)
Nc1ccc(S(=O)(=O)c2ccc(/N=[N+](\[O-])c3ccc(S(=O)(=O)c4ccc(N)cc4)cc3)cc2)cc1 | 30.8 µM (inactive) | > 100 µM (inactive) | > 91.8 µM (inactive) | > 55.3 µM (inactive) | 44.4 µM (inactive) | 24.9 µM (inactive) | > 100 µM (inactive) | > 74.3 µM (inactive) | > 100 | 86.9 µM (inactive) | > 49.1 µM (inactive) | > 100 µM (inactive) | 14.6 µM (inactive) | 41.2 µM (inactive) | > 50 µM (inactive) | > 60.5 µM (inactive) | 44 µM (inactive) | > 100 µM (inactive) | 34.8 µM (inactive) | –
COc1cc(/C=N/N=C2NCCN2)ccc1O | – | > 100 µM (inactive) | > 100 µM (inactive) | > 100 µM (inactive) | > 100 µM (inactive) | > 100 µM (inactive) | > 100 µM (inactive) | > 100 µM (inactive) | > 100 | – | > 100 µM (inactive) | > 100 µM (inactive) | > 100 µM (inactive) | > 100 µM (inactive) | > 100 µM (inactive) | > 100 µM (inactive) | > 100 µM (inactive) | > 100 µM (inactive) | > 100 µM (inactive) | > 100 µM (inactive)
CC(SC(=S)N(C)C)C(=O)Nc1nnc(-c2ccc(Cl)cc2)o1 (stereo unspecified) | 42.4 µM (inactive) | 22.6 µM (inactive) | 65.9 µM (inactive) | 35.9 µM (inactive) | 35.3 µM (inactive) | > 100 µM (inactive) | 56.4 µM (inactive) | 14.6 µM (inactive) | 17.7 | – | 30.8 µM (inactive) | 33.3 µM (inactive) | 40.6 µM (inactive) | 49.7 µM (inactive) | 45.8 µM (inactive) | 36 µM (inactive) | 31.6 µM (inactive) | 24 µM (inactive) | 54.2 µM (inactive) | –
N#Cc1nc(-c2cccnc2)oc1N | > 100 µM (inactive) | > 100 µM (inactive) | > 100 µM (inactive) | > 100 µM (inactive) | > 100 µM (inactive) | > 100 µM (inactive) | > 100 µM (inactive) | – | > 100 | > 100 µM (inactive) | > 100 µM (inactive) | – | > 100 µM (inactive) | – | > 100 µM (inactive) | > 100 µM (inactive) | > 100 µM (inactive) | > 100 µM (inactive) | – | –
Cc1cccc(NC(=S)Nc2ccc([N+](=O)[O-])cc2)n1 | > 100 µM (inactive) | > 100 µM (inactive) | > 100 µM (inactive) | > 100 µM (inactive) | > 100 µM (inactive) | > 100 µM (inactive) | – | > 100 µM (inactive) | > 100 | > 100 µM (inactive) | > 100 µM (inactive) | – | > 100 µM (inactive) | > 100 µM (inactive) | > 100 µM (inactive) | > 100 µM (inactive) | > 100 µM (inactive) | > 100 µM (inactive) | > 100 µM (inactive) | –
O=C(/C=C/c1ccc(-c2ccccc2[N+](=O)[O-])o1)NCc1ccc(C(=O)NCCc2ccccc2)cc1 | 29.3 µM (inactive) | > 100 µM (inactive) | 46.7 µM (inactive) | > 100 µM (inactive) | > 100 µM (inactive) | > 100 µM (inactive) | > 100 µM (inactive) | > 100 µM (inactive) | > 100 | > 100 µM (inactive) | 21.2 µM (inactive) | > 100 µM (inactive) | > 100 µM (inactive) | > 100 µM (inactive) | 6.4 µM (inactive) | > 100 µM (inactive) | > 100 µM (inactive) | > 100 µM (inactive) | > 100 µM (inactive) | –
COC(=O)C1=C2Nc3ccccc3C23CCN2C(O)C4(CC5CC67CCOC6CCN6CCC8(c9cccc(OC)c9N(C4)C58O)C67)C4OCCC4(C1)C23 (stereo unspecified) | 64.3 µM (inactive) | > 100 µM (inactive) | > 100 µM (inactive) | 34.8 µM (inactive) | 45.7 µM (inactive) | 68.5 µM (inactive) | > 100 µM (inactive) | – | > 100 | 25.2 µM (inactive) | 84.1 µM (inactive) | > 100 µM (inactive) | 87.9 µM (inactive) | 23.5 µM (inactive) | > 100 µM (inactive) | 86.5 µM (inactive) | 49.5 µM (inactive) | > 100 µM (inactive) | > 100 µM (inactive) | 98.2 µM (inactive)
Nc1ccc(C2SCC(=O)N2NS(=O)(=O)c2cccc(C(=O)O)c2)cc1 (stereo unspecified) | > 100 µM (inactive) | 10.4 µM (inactive) | > 100 µM (inactive) | > 100 µM (inactive) | > 100 µM (inactive) | > 100 µM (inactive) | > 100 µM (inactive) | – | > 100 | > 100 µM (inactive) | > 100 µM (inactive) | > 100 µM (inactive) | > 100 µM (inactive) | > 100 µM (inactive) | > 100 µM (inactive) | > 100 µM (inactive) | > 100 µM (inactive) | > 100 µM (inactive) | > 100 µM (inactive) | > 100 µM (inactive)
COc1ccc2c(c1)CCC1=C/C(=N\NC(N)=O)CCC12C (stereo unspecified) | – | > 10 µM (inactive) | > 10 µM (inactive) | > 10 µM (inactive) | > 10 µM (inactive) | > 10 µM (inactive) | – | > 10 µM (inactive) | > 10 | > 10 µM (inactive) | – | > 10 µM (inactive) | – | > 10 µM (inactive) | 6.41 µM (inactive) | > 10 µM (inactive) | > 10 µM (inactive) | > 10 µM (inactive) | > 10 µM (inactive) | > 10 µM (inactive)
NS(=O)(=O)c1nnc(NC(=O)Nc2ccc(Cl)c(Cl)c2)s1 | 22 µM (inactive) | 17.5 µM (inactive) | 16.5 µM (inactive) | – | 21 µM (inactive) | 20.6 µM (inactive) | 24.5 µM (inactive) | 21 µM (inactive) | 21.2 | 25.9 µM (inactive) | 25.4 µM (inactive) | 31 µM (inactive) | 23.2 µM (inactive) | 20.4 µM (inactive) | 16.2 µM (inactive) | 34.2 µM (inactive) | 16.7 µM (inactive) | 16.7 µM (inactive) | 18 µM (inactive) | 20.5 µM (inactive)
O=c1cccc2n1CC1CNC[C@H]2C1 [CYTISINICLINE] | – | – | > 100 µM (inactive) | > 100 µM (inactive) | > 100 µM (inactive) | > 100 µM (inactive) | > 100 µM (inactive) | > 100 µM (inactive) | > 100 | > 100 µM (inactive) | > 100 µM (inactive) | > 100 µM (inactive) | – | > 100 µM (inactive) | > 100 µM (inactive) | > 100 µM (inactive) | > 100 µM (inactive) | > 100 µM (inactive) | > 100 µM (inactive) | > 100 µM (inactive)

Reference: ChEMBL document CHEMBL1201862, “PubChem BioAssay data set” (2004)
